Data on one molecule can be found in PMC9414584, “Synthesis and Biological Evaluation of Indole-2-Carboxamides with Potent Apoptotic Antiproliferative Activity as EGFR/CDK2 Dual Inhibitors” (Pharmaceuticals, 2022).

In general, IC50 refers to the concentration at which inhibition is half-maximal. A word on the GI50: it is the concentration giving 50% growth inhibition.

Assay [1] concerns Cytochrome C in MCF-7 human breast cancer cell line. Put plainly: Cytochrome C assay in MCF-7 cells. Format: cell-based. On the procedure:
The quantity of cytochrome C within the cell is important for activating caspases and commencing the intrinsic apoptosis process. […] The findings add to the evidence that apoptosis can be attributed to Cytochrome C overexpression and activation of the intrinsic apoptotic pathway triggered by the investigated compounds.
Indole-2-carboxamide derivatives 5d, 5e, and 5h were evaluated as Cytochrome C activators in the MCF-7 human breast cancer cell line.

In assay [2] the test system is breast cancer cell line (MCF-7). Put plainly: Antiproliferative MTT assay, MCF-7. Conditions: Homo sapiens, MCF7; MCF-7, MTT; read-out: Antiproliferative Activity IC50 ± SEM MCF-7. Format: cell-based. The text has this: (§1) Using the MTT assay with doxorubicin as the reference drug, the antiproliferative activities of 5a–k, 6a–c, and 7 against four human cancer cell lines, including pancreas cancer cell line (Panc-1), breast cancer cell line (MCF-7), colon cancer cell line (HT-29), and epithelial cancer cell line (A-549) were investigated.

For assay [3], the system named is Caspase-8 in MCF-7 breast cancer cell line. Put plainly: Caspase-8 level in MCF-7 cells. Format: cell-based, human.
The subject of assay [4] is A549 lung, MCF-7 breast, Panc-1 Pancreatic, and HT-29 colon cancer cell lines. Also on record: method as in PMID 31128433. Conditions: A549, MCF-7, Panc-1, HT-29; read-out: GI50 against the four examined cell lines (mean GI50); cited from earlier work.
In assay [5] the test system is four human cancer cell lines (Panc-1, MCF-7, HT-29, A-549). Put plainly: Antiproliferative MTT assay, average of four cancer cell lines (mean GI50). Format: cell-based. Conditions: Homo sapiens; average of A-549, MCF-7, Panc-1, HT-29; read-out: Antiproliferative Activity IC50 Average (GI50 against the four cell lines). (Tetrazolium dyes change colour on reduction, which living cells bring about.)

For assay [6], the system named is Bax in breast cancer cell line (MCF-7). Put plainly: Bax level assay in MCF-7 cells. Format: cell-based, human.
Assay [7] has as its system p53 in MCF-7. Put plainly: p53 transcription/level in MCF-7. Format: cell-based, human. The note with it: MCF-7 cells. The text has this:
p53 is a unique protein that participates in several physiological processes such as cell metabolism, stem cell maintenance, and cell adhesion. Because p53 is frequently inactivated in cancer cells, the cells are unable to undergo apoptosis. Similarly, activating, or stabilizing p53 aids cancer cells in normalizing p53-controlled physiological processes and increasing apoptotic activity.

The test system of assay [8] is pancreas cancer cell line (Panc-1). Put plainly: Antiproliferative MTT assay, Panc-1. Format: cell-based. Conditions: Homo sapiens; Panc-1, MTT; read-out: Antiproliferative Activity IC50 ± SEM Panc-1.
Source text: as §1

The subject of assay [9] is colon cancer cell line (HT-29). The assay is described as follows: Antiproliferative MTT assay, HT-29. Format: cell-based. The note with it: Homo sapiens; HT-29, MTT; read-out: Antiproliferative Activity IC50 ± SEM HT-29.
Source text: as §1

For assay [10], the system named is Caspase-3 in MCF-7 breast cancer cell line. Put plainly: Caspase-3 level in MCF-7 cells.
In assay [11] the test system is Bcl-2 in breast cancer cell line (MCF-7). Put plainly: Bcl-2 level assay in MCF-7 cells. Format: cell-based, human.
The test system of assay [12] is epithelial cancer cell line (A-549). The assay is described as follows: Antiproliferative MTT assay, A-549. Conditions: Homo sapiens, A549; A-549, MTT; read-out: Antiproliferative Activity IC50 ± SEM A-549. Format: cell-based.
Source text: as §1

Assay [13] has as its system Caspase-9 in MCF-7 breast cancer cell line. Put plainly: Caspase-9 level in MCF-7 cells. Format: cell-based, human.

Regarding `COc1cccc2c1C(=O)c1c(O)c3c(c(O)c1C2=O)C[C@@](O)(C(=O)CO)C[C@@H]3O[C@H]1C[C@H](N)[C@H](O)[C@H](C)O1` [Doxorubicin, reference compound], the “Cytochrome C Conc” value in assay [1] was found to be 0.60 ng/mL. For the same molecule, the “Cytochrome C Fold Change” value in assay [1] (vs untreated control cells) was found to be 12 fold. Also, the IC50 in assay [2] was 900 ± 100 nM; in [5], 1100 nM; in assay [8] it was 1400 ± 200 nM; in [9] it was 1000 ± 100 nM; in [12], 1200 ± 200 nM. The “Caspase-8 Conc” value in assay [3] came out at 1.80 ng/mL. For the same molecule, the “Caspase-8 Fold Change” value in assay [3] (vs control cells) came out at 9.00 fold. The GI50 in assay [4] was 1130 nM. Further, in assay [6], the “Bax Conc” value amounted to 275.80 ± 2.50 pg/mL. The “Bax Fold Change” value in assay [6] (increase over control untreated cells) came to 33 fold. Besides, the “p53 Conc” value came to 1265 ± 10 pg/mL in assay [7] and 1265 pg/mL in [7] (listed as doxorubicin). In addition, the “p53 Fold Change” value in assay [7] (vs control) was determined as 25 fold. In addition, the “Caspase-3 Conc” value in [10] worked out at 503.50 ± 4.50 pg/mL. The “Caspase-3 Fold Change” value in [10] (vs control untreated cells) worked out at 7.70 fold. The “Bcl-2 Conc” value in assay [11] is 0.98 ng/mL. Also, the “Bcl-2 Fold Change” value in assay [11] (reduced level vs control) is given as 5.20 fold. In addition, the “Caspase-9 Conc” value in assay [13] amounted to 16.25 ng/mL. Moreover, in assay [13] (vs control cells), the “Caspase-9 Fold Change” value stood at 17.00 fold.
